Source: publication PMC7281429, “Chromenopyrimidinone Controls Stemness and Malignancy by suppressing CD133 Expression in Hepatocellular Carcinoma” (Cancers, 2020)
pEC50: −log10 of the molar value.

Molecular target: T1, topoisomerase I (Homo sapiens, UniProt P11387)
T1 construct: gene TOP1
T1 sequence (P11387 2-765): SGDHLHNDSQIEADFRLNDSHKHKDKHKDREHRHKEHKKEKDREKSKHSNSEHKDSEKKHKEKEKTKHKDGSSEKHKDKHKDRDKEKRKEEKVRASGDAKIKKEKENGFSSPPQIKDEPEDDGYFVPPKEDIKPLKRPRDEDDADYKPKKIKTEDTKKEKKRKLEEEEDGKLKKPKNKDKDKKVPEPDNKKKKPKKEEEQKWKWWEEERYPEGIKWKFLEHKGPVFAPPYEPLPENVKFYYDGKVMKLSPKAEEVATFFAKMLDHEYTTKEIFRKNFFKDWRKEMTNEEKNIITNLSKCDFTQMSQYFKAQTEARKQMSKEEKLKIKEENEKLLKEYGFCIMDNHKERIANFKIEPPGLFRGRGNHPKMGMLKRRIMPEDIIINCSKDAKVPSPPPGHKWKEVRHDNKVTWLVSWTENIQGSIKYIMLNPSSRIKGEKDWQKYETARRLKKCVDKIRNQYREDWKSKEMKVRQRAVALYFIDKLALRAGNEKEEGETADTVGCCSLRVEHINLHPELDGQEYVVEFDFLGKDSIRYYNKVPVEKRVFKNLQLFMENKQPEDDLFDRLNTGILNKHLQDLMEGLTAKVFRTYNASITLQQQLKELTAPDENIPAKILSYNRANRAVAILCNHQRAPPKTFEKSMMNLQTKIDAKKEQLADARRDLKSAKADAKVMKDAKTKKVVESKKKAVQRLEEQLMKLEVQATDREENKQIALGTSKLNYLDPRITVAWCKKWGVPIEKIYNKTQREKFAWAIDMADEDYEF
Experiment: plasmid DNA relaxation assay (supercoiled pBR322, agarose gel) with commercial human topoisomerase I
Assay type: biochemical

Q: How did the pEC50 turn out when `O=c1[nH]c(-c2ccc(O)cc2)nc2c1Cc1c(ccc3ccccc13)O2` [CPO, chromenopyrimidinone] was run?
A: The pEC50 was 5.44.
